Experimental findings from US20020162128A1, “Non-human animal deficient in function of pituitary adenylate cyclase-activating polypeptide gene” (priority 2000, published 2002) are described below.

Format in all cases: in vivo, mouse
For data set [1], the system named is PACAP−/− mice. Kind of data set: Catalepsy in the bar test after haloperidol. As to conditions: haloperidol 0.2 and 2 mg/kg intraperitoneally; PACAP−/− mice compared with wild-type mice. The procedure:
(§1) Motor activity was quantified using an automated video-tracking system, the video image motion analyzer AXIS-90 (Neuroscience, Inc., Tokyo, Japan). A computer program was used to overlay grid lines defining 25 separate regions within a circular open field (60 cm in diameter, 30 cm deep, illuminated with white light, 100 lux). Paths taken by each mouse were stored permanently as x-y coordinate sequences, and parameters indicative of locomotor activity were assessed. Vertical activity (rearing and jumping) were also scored. In the haloperidol study, the drug was injected intraperitoneally 20 min prior to monitoring locomotor activity, which was measured for 90 min by another activity-monitoring system, Supermex (multi-channel system; Muromachi Kikai Co., Ltd., Tokyo, Japan). Subsequently, the same mice were tested for catalepsy in the bar test as previously described in Boulay, D., Depoortere, R., Oblin, A., Sanger, D. J., Schoemaker, H. & Perrault, G. (2000) Eur. J. Pharmacol. 391, 63-73.
(§2) Effects of haloperidol on locomotor activity. (A) PACAP+/+and PACAP−/− mice (n =6-7) were injected intraperitoneally with 0.2 and 2 mg/kg haloperidol or vehicle (0.5% carboxymethyl cellulose sodium) and 20 min later placed in the open field for automated measurement of locomotor parameters over a 90 min test period. (B) Subsequently, each mouse was tested for catalepsy in the bar test. […]

Data set [2] concerns PACAP−/− mice. Kind of data set: Effect of haloperidol on locomotor hyperactivity in the open field. The following applies: haloperidol 0.2 mg/kg intraperitoneally, 20 min before 90 min test, versus vehicle. As for the experimental part:
as §1, §2

The subject of data set [3] is wild-type mice. Briefly: Effect of haloperidol on locomotor activity in the open field. The following applies: haloperidol 0.2 mg/kg intraperitoneally, 20 min before 90 min test, versus vehicle. The procedure:
as §1, §2

Turning to `O=C(CCCN1CCC(O)(c2ccc(Cl)cc2)CC1)c1ccc(F)cc1` [Haloperidol, haloperidol], in data set [1], the “cataleptogenic effect (bar test)” value is recorded as “quite similar to that in wild-type mice”. Besides, the “reduction of hyperactivity (total locomotor activity)” value in data set [2] came to 65±10 % reduction. Further, the “impairment of locomotor activity (total activity)” value in data set [3] is 43±21 % reduction.
